The values below come from PMC9959048, “Lipidation of Naturally Occurring α-Helical Antimicrobial Peptides as a Promising Strategy for Drug Design” (International Journal of Molecular Sciences, 2023).

Values after ≈ are worked out from the molar mass of the structure shown. Like-named read-outs stand apart in the source and are kept apart here. Residues, ends and D or L forms follow the SMILES beside them. *: point of attachment. Palmitoyl = CCCCCCCCCCCCCCCC(=O)*; Myristoyl = CCCCCCCCCCCCCC(=O)*

Assay [1] concerns C. krusei CCM8271. The format is cell-based, Candida krusei. The method, then:
(§1) The evaluation of the antimicrobial activity of the synthesized lipopeptides was performed against the following reference bacterial and fungal strains: Staphylococcus aureus PCM 1650, Staphylococcus aureus PCM 2054, Staphylococcus epidermidis PCM 521, Staphylococcus epidermidis PCM 2118, Escherichia coli PCM 2057, Candida albicans PCM 2566, Candida glabrata CCM 8270, Candida krusei CCM 8271, Candida parapsilosis CCM 8260.
(§2) For the initial cultivation of the bacteria and fungi, Luria-Bertani broth (LB, Biomaxima, Lublin, Poland) and Sabouraud Dextrose broth (SB, Biomaxima, Lublin, Poland) were used, respectively. Antimicrobial properties of the compounds were analyzed through the determination of MIC (minimal inhibitory concentrations) by my means of the serial micro-dilution technique according to the guidelines of Clinical & Laboratory Standard Institute (CLSI) established for aerobic bacteria and yeasts.
(§3) According to the procedures, Mueller–Hinton broth (MHB) was used as the working medium for the analysis of the bacterial susceptibility, while RPMI-1640 (with L-glutamine, without sodium bicarbonate) growth medium buffered with MOPS (morpholinepropanesulfonic acid) and supplemented with 2% glucose was used for the experiments with the fungi.
(§4) The experiments were carried out for 24 h at 37 and 35 °C for the bacteria and fungi, respectively. Then, the absorbance was measured at 600 nm for each well of the 96-well plate using a microplate reader (Sunrise TM, Tecan Trading AG, Männedorf, Switzerland). Based on the obtained results, the degree of inhibition of the growth of microorganisms (expressed in %) in the presence of the tested compounds range was determined with respect to the control probes. Inoculated wells without peptide were treated as a positive control (100% growth), and the wells containing working medium only were defined as a negative control (0% growth). All measurements were repeated in triplicate.

For assay [2], the system named is C. parapsilosis CCM 8260. It counts as cell-based, Candida parapsilosis. The method, then:
as §1, §2, §3, §4

The test system of assay [3] is C. albicans PCM2566. It counts as cell-based, Candida albicans. The method, then: as §1, §2, §3, §4
The test system of assay [4] is C. glabrata CCM8270. The format is cell-based, Candida glabrata. The method, then:
as §1, §2, §3, §4

Assay [5] deals with S. aureus PCM2054. The format is cell-based, Staphylococcus aureus. The method, then: as §1, §2, §3, §4
Assay [6] has as its system S. epidermidis PCM521. It counts as cell-based, Staphylococcus epidermidis. The method, then: as §1, §2, §3, §4
Assay [7] relates to S. epidermidis PCM2118. The format is cell-based, Staphylococcus epidermidis. The method, then: as §1, §2, §3, §4
The test system of assay [8] is E. coli PCM2057. It counts as cell-based, Escherichia coli. The method, then: as §1, §2, §3, §4
The mark [9] stands for this setting: RPMI-1640 with MOPS and 2% glucose, inoculum 5 × 10^3 CFU/mL, 24 h, 35 °C, absorbance 600 nm, triplicate.
Setting [10] is: Mueller–Hinton broth, inoculum 5 × 10^5 CFU/mL, 24 h, 37 °C, absorbance 600 nm, triplicate.

On to `CCCCCCCCCCCCCC(=O)N[C@H](C(=O)N[C@@H](CC(N)=O)C(=O)N[C@@H](Cc1c[nH]c2ccccc12)C(=O)N[C@@H](CCCCN)C(=O)N[C@@H](CCCCN)C(=O)N[C@H](C(=O)N[C@@H](CC(C)C)C(=O)NCC(=O)N[C@@H](CCCCN)C(=O)N[C@H](C(=O)N[C@H](C(=O)N[C@@H](CCCCN)C(=O)N[C@H](C(=O)N[C@@H](C)C(=O)N[C@@H](CCCCN)C(N)=O)C(C)C)[C@@H](C)CC)[C@@H](C)CC)C(C)C)C(C)C` [C14-LL-I] (Myristoyl-VNWKKVLGKIIKVAK-NH2), for which, in assay [1] (setting [9]), the “MIC, C. krusei CCM8271” value stood at 12.5 µg/mL (≈ 6.46 µM). Further, the “MIC, C. parapsilosis CCM 8260” value in assay [2] (setting [9]) is 3.13 µg/mL (≈ 1.62 µM). Moreover, the “MIC, C. albicans PCM2566” value in assay [3] (setting [9]) was above 50 µg/mL. Also, the “MIC, C. glabrata CCM8270” value in assay [4] (setting [9]) was found to be 12.5 µg/mL (≈ 6.46 µM). Also, in assay [5] (setting [10]), the “MIC, S. aureus PCM2054” value was above 50 µg/mL. Also, in assay [6] (setting [10]), the “MIC, S. epidermidis PCM521” value is listed as 12.5 µg/mL (≈ 6.46 µM). Further, the “MIC, S. epidermidis PCM2118” value in assay [7] (setting [10]) is 12.5 µg/mL (≈ 6.46 µM). Also, in assay [8] (setting [10]), the “MIC, E. coli PCM2057” value is on record as above 50 µg/mL.

Take `CCCCCCCCCCCCCCCC(=O)N[C@H](C(=O)N[C@@H](CCCCN)C(=O)N[C@@H](CCCCN)C(=O)N[C@H](C(=O)N[C@@H](CC(C)C)C(=O)N[C@@H](CO)C(=O)N[C@@H](CCCCN)C(=O)N[C@H](C(=O)N[C@@H](CCCCN)C(=O)N[C@@H](CCCCN)C(=O)N[C@@H](CC(C)C)C(=O)N[C@@H](CC(C)C)C(=O)N[C@@H](CCCCN)C(N)=O)[C@@H](C)CC)[C@@H](C)CC)[C@@H](C)CC` [C16-LK6] (Palmitoyl-IKKILSKIKKLLK-NH2): in assay [1] (CCM8271, 24 h), the “MIC, C. krusei CCM8271” value is 25 µg/mL (≈ 14 µM). Besides, the “MIC, C. parapsilosis CCM 8260” value in assay [2] (CCM 8260, 24 h) was determined as 50 µg/mL (≈ 27.9 µM). Moreover, the “MIC, C. albicans PCM2566” value in assay [3] (PCM2566, 24 h) worked out at 6.25 µg/mL (≈ 3.49 µM). The “MIC, C. glabrata CCM8270” value in assay [4] (CCM8270, 24 h) is recorded as above 50 µg/mL. In addition, the “MIC, S. aureus PCM2054” value in assay [5] (PCM2054, 24 h) was above 50 µg/mL. Also, the “MIC, S. epidermidis PCM521” value in assay [6] (PCM521, 24 h) amounted to 50 µg/mL (≈ 27.9 µM). Besides, the “MIC, S. epidermidis PCM2118” value in assay [7] (PCM2118, 24 h) was determined as 50 µg/mL (≈ 27.9 µM). In addition, in assay [8] (PCM2057, 24 h), the “MIC, E. coli PCM2057” value is listed as above 50 µg/mL.

Regarding `CCCCCCCCCCCCCCCC(=O)N[C@H](C(=O)N[C@@H](CC(N)=O)C(=O)N[C@@H](Cc1c[nH]c2ccccc12)C(=O)N[C@@H](CCCCN)C(=O)N[C@@H](CCCCN)C(=O)N[C@H](C(=O)N[C@@H](CC(C)C)C(=O)NCC(=O)N[C@@H](CCCCN)C(=O)N[C@H](C(=O)N[C@H](C(=O)N[C@@H](CCCCN)C(=O)N[C@H](C(=O)N[C@@H](C)C(=O)N[C@@H](CCCCN)C(N)=O)C(C)C)[C@@H](C)CC)[C@@H](C)CC)C(C)C)C(C)C` [C16-LL-I] (Palmitoyl-VNWKKVLGKIIKVAK-NH2), in assay [1] (setting [9]), the “MIC, C. krusei CCM8271” value is reported as above 50 µg/mL. Besides, the “MIC, C. parapsilosis CCM 8260” value in assay [2] (setting [9]) stood at 12.5 µg/mL (≈ 6.37 µM). For the same compound, the “MIC, C. albicans PCM2566” value in assay [3] (setting [9]) is on record as above 50 µg/mL. For the same compound, the “MIC, C. glabrata CCM8270” value in assay [4] (setting [9]) was above 50 µg/mL. The “MIC, S. aureus PCM2054” value in assay [5] (setting [10]) was above 50 µg/mL. Also, in assay [6] (setting [10]), the “MIC, S. epidermidis PCM521” value is reported as 25 µg/mL (≈ 12.7 µM). Moreover, the “MIC, S. epidermidis PCM2118” value in assay [7] (setting [10]) stood at 25 µg/mL (≈ 12.7 µM). Moreover, the “MIC, E. coli PCM2057” value in assay [8] (setting [10]) was above 50 µg/mL.

As for `CC[C@H](C)[C@H](N)C(=O)N[C@@H](CCCCN)C(=O)N[C@@H](CCCCN)C(=O)N[C@H](C(=O)N[C@@H](CC(C)C)C(=O)N[C@@H](CO)C(=O)N[C@@H](CCCCN)C(=O)N[C@H](C(=O)N[C@@H](CCCCN)C(=O)N[C@@H](CCCCN)C(=O)N[C@@H](CC(C)C)C(=O)N[C@@H](CC(C)C)C(=O)N[C@@H](CCCCN)C(N)=O)[C@@H](C)CC)[C@@H](C)CC` [LK6, reference compound] (H-IKKILSKIKKLLK-NH2), the “MIC, C. krusei CCM8271” value in assay [1] (CCM8271, 24 h) is listed as 12.5 µg/mL (≈ 8.05 µM). In addition, in assay [2] (CCM 8260, 24 h), the “MIC, C. parapsilosis CCM 8260” value worked out at 12.5 µg/mL (≈ 8.05 µM). The “MIC, C. albicans PCM2566” value in assay [3] (PCM2566, 24 h) was found to be 50 µg/mL (≈ 32.2 µM). In assay [4] (CCM8270, 24 h), the “MIC, C. glabrata CCM8270” value is reported as 31.25 µg/mL (≈ 20.1 µM). For the same compound, the “MIC, S. aureus PCM2054” value in assay [5] (PCM2054, 24 h) is on record as above 50 µg/mL. The “MIC, S. epidermidis PCM521” value in assay [6] (PCM521, 24 h) amounted to 6.25 µg/mL (≈ 4.03 µM). Moreover, the “MIC, S. epidermidis PCM2118” value in assay [7] (PCM2118, 24 h) worked out at 6.25 µg/mL (≈ 4.03 µM). Also, in assay [8] (PCM2057, 24 h), the “MIC, E. coli PCM2057” value was above 50 µg/mL.
